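Grown in 96-well plates, cells were treated for 48 hours with each compound at five concentrations. Insufficient inhibition: endpoint recorded as highest concentration tested. GI50 marks 50% less growth. TGI is the concentration that stops growth completely.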
Assays:
Test in all cases: NCI-60 cell line screen, 48 h
CAKI-1 renal = system: CAKI-1 renal
CCRF-CEM leukemia = system: CCRF-CEM leukemia
HCT-116 colon = system: HCT-116 colon
HOP-62 NSCLC = system: HOP-62 NSCLC
KM12 colon = system: KM12 colon
RPMI-8226 leukemia = system: RPMI-8226 leukemia
RXF 393 renal = system: RXF 393 renal
SK-MEL-2 melanoma = system: SK-MEL-2 melanoma
SN12C renal = system: SN12C renal
HT29 colon = system: HT29 colon

Compound	GI50 (CAKI-1 renal) [µM]	TGI (CAKI-1 renal) [µM]	GI50 (CCRF-CEM leukemia) [µM]	TGI (CCRF-CEM leukemia) [µM]	GI50 (HCT-116 colon) [µM]	TGI (HCT-116 colon) [µM]	GI50 (HOP-62 NSCLC) [µM]	TGI (HOP-62 NSCLC) [µM]	GI50 (KM12 colon) [µM]	TGI (KM12 colon) [µM]	GI50 (RPMI-8226 leukemia) [µM]	TGI (RPMI-8226 leukemia) [µM]	GI50 (RXF 393 renal) [µM]	TGI (RXF 393 renal) [µM]	GI50 (SK-MEL-2 melanoma) [µM]	TGI (SK-MEL-2 melanoma) [µM]	GI50 (SN12C renal) [µM]	TGI (SN12C renal) [µM]	TGI (HT29 colon) [µM]	GI50 (HT29 colon) [µM]
NC(N)=NCCC1OC(=O)C2=C1c1c(O)ccc3nccc(c13)O2 (stereo not drawn)	> 100	> 100	> 100	> 100	> 100	> 100	> 100	> 100	> 100	> 100	> 100	> 100	> 100	> 100	> 100	> 100	> 100	> 100		
COC(=O)[C@]12CCC(C)[C@H](C)[C@H]1C1=CCC3[C@@]4(C)CC[C@H](OC(C)=O)C(C)(C)C4CC[C@@]3(C)C1(C)C(O)C2 (stereo partly drawn)		> 100		> 100		> 100		> 100		> 100		> 100				> 100		> 100	> 100	
COc1ccc(C2=NN(C=O)C(c3cccc(Nc4ccnc5cc(Cl)ccc45)c3)C2)cc1 (stereo not drawn)			2.14	13.1	1.84	6.02	2.11	16.6	2.18	37	1.36	11.2	1.66	7.61			4.45	> 100	9.7	1.65
CCOC(=O)c1cc(/C=C/C(C)=C/C(=O)OC)oc1C		> 100		> 100		> 100		> 100		> 100		> 100				> 100			> 100	
O=C(c1ccncc1)n1nc(-c2ccccc2)c(N=Nc2ccccc2[N+](=O)[O-])c1-c1ccccc1		> 100		> 100		> 100		> 100		> 100		> 100				> 100		> 100	> 100	
COc1ccc(-c2oc3c(OC)c(OC)c(OC)c(OC)c3c(=O)c2OC)cc1OC		> 100		> 100		> 100		59.8		> 100		34				> 100		> 100	64.8	
Cc1cc2c(cc1Cl)SC1=NN(C)C(N(C)C)N1S2(=O)=O (stereo not drawn)	> 100	> 100	> 100	> 100	> 100	> 100	> 100	> 100	> 100	> 100	> 100	> 100			> 100	> 100	> 100	> 100	> 100	> 100
O=C(O)C1CCCCC1C(=O)O.[NH-]C1CCC1.[NH2-].[Pt+2] (stereo not drawn)	2.61	17.4			16.1	36.2	77	> 100	> 100	> 100			52.8	> 100	57.2	> 100	11.8	26.7	35.3	17.2

Source: PubChem BioAssay (NCI)
